Columns and labels:
[1] = Cell viability assay (Cell Titer Glo); assay type: cell-based, human; conditions: human, HEK293T cells, 24 hours, read-out: cytotoxicity IC50
Procedure: HEK293T cells were seeded in 96-well clear bottom white plate (Corning) at 3×10^4 cells per well in 100 μL of DMEM medium and grown for 24 h. The cells were treated with 0.625, 1.25, 2.5, 5, 10, 20 and 40 μM of KB02-SLF or KB02-JQ1 (DMSO stock, final DMEM concentration is 0.1% (v/v)) in 100 μL of DMEM medium for 24 h. 50 μL of Cell Titer Glo reagent (Promega) was added to each well and incubate for 10 min at room temperature. The luminescence was read on CLARIOstar (BMG LAB TECH).

[2] = target: T1, BRD4 (Homo sapiens, UniProt O60885); assay: Proteome-wide SILAC MS protein abundance in HEK293T cells: BRD4; assay type: cell-based; conditions: 24 hours
T1 construct: degradation of endogenous BRD4 in HEK293T cells; endogenous in cells; host or cells: HEK293T (A10, A16); HEK293 DCAF16+/+ and DCAF16-/- clones (A11)
Procedure: (§1) HEK293T light and heavy SILAC cells were treated with DMSO and KB02-JQ1 (20 μM) or KB02-SLF (2 μM) for 24 hours, respectively. Light and heavy cells were collected and lysed in 1% NP-40 lysis buffer with complete protease inhibitor cocktail. Cells were vortexed and sonicated for 5 pulses (40%, 4). The supernatant was collected after centrifugation at 16,000 g for 10 min at 4° C. Protein concentration was determined by DC assay. 50 μg proteome from light and heavy samples were mixed, followed by methanol/chloroform precipitation. […] Next, the ratio of the peak areas under the light and heavy signals (signal-to-noise ratio>2.5) was calculated. […] In addition, peptides detected as ‘singletons,’ where only the heavy ion of a peptide pair was identified, but that cleared all other filtering parameters, were given a default assigned ratio of ‘20,’ which is defined as any measured ratio that is ≥20 and is the maximum ratio reported here.” The median SILAC ratios from quantified peptides were used as measures of protein abundance. The following quality filters were further applied to generate the plot: (1) proteins must have at least two quantified peptides; (2) proteins must be present in both replicates; (3) for each protein, the standard deviation of measured ratios of peptides must be <1.0.

[3] = target: T2, ACAT1 (Homo sapiens, UniProt P24752); assay: Proteome-wide SILAC MS protein abundance in HEK293T cells: ACAT1; assay type: cell-based; conditions: 24 hours
T2 construct: endogenous in cells; host or cells: HEK293T
T2 sequence (P24752 34-427): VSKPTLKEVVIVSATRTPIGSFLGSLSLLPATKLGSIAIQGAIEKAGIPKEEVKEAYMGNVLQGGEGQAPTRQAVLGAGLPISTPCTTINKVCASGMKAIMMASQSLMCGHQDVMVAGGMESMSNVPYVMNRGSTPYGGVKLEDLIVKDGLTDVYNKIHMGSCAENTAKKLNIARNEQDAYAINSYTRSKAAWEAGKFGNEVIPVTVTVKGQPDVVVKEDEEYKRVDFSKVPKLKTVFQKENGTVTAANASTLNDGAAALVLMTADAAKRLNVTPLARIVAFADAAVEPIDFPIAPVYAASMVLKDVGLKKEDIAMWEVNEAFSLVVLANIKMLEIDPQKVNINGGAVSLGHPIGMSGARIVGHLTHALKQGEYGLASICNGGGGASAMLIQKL
Procedure: as §1

BRD4 abundance (MS-based proteomics) ([2]; KB02-JQ1 20 μM)	ACAT1 abundance (MS-based proteomics) ([3]; KB02-JQ1 20 μM)	Compound	IC50 at 24 h [1]	BRD4 abundance (MS-based proteomics) ([2]; KB02-SLF 2 μM)	ACAT1 abundance (MS-based proteomics) ([3]; KB02-SLF 2 μM)
–	–	CCC(C)(C)C(=O)C(=O)N1CCCC[C@H]1C(=O)O[C@H](CCc1ccc(OC)c(OC)c1)c1cccc(NC(=O)CCOCCOCCNC(=O)COc2ccc3c(c2)CCCN3C(=O)CCl)c1 [KB02-SLF, (R)-1-(3-(3-(2-(2-(2-((1-(2-chloroacetyl)-1,2,3,4-tetrahydroquinolin-6-yl)oxy)acetamido)ethoxy)ethoxy)propanamido)phenyl)-3-(3,4-dimethoxyphenyl)propyl (S)-1-(3,3-dimethyl-2-oxopentanoyl)piperidine-2-carboxylate]	14 ± 1.1 µM	not BRD4	reductions in ACAT1
selective degradation of BRD4	substantially decreased abundance	Cc1sc2c(c1C)C(c1ccc(Cl)cc1)=N[C@@H](CC(=O)NCCOCCOCCNC(=O)COc1ccc3c(c1)CCCN3C(=O)CCl)c1nnc(C)n1-2 [KB02-JQ1, (S)-2-((1-(2-chloroacetyl)-1,2,3,4-tetrahydroquinolin-6-yl)oxy)-N-(2-(2-(2-(2-(4-(4-chlorophenyl)-2,3,9-trimethyl-6H-thieno[3,2-f][1,2,4]triazolo[4,3-a][1,4]diazepin-6-yl)acetamido)ethoxy)ethoxy)ethyl)acetamide]	> 50 µM	–	–
